US20240041830A1, “CIRCULATING BIOMARKERS OF RESPONSE TO PD-1/PD-L1 BLOCKADE AND GSK-3 INHIBITION” (Brown University, priority 2022, published 2024)

How the values were obtained:
HT-29 = experiment: microarray analysis; type: cell-based, human; conditions: 1 μM, 24 hours, vs untreated
Method: Microarrays. A total of 0.5×10^6 tumor cells (HCT-116, HT-29, KM12C) were plated in a 6-well plate and allowed to adhere overnight before 24-hour treatment, as indicated. Then, 1×10^6 immune cells (NK92, TALL-104) were plated and treated with elraglusib as indicated for twenty-four h. RNA was isolated from cell pellets in batches of six using a RNeasy Plus Mini Kit (Cat #74134, Qiagen, Hilden, Germany). Acceptable RNA concentration and quality were verified with Nanodrop and Bioanalyzer measurements. GeneChip™ Human Transcriptome Array 2.0 assays were conducted according to manufacturer instructions in two batches using randomized samples to limit batch effects (Cat #902162, Applied Biosystems, Waltham, MA, USA). Applied Biosystems Transcriptomic Analysis Console (TAC) software (RRID: SCR_016519) was used to calculate fold changes in gene expression relative to the untreated control cells. Values were considered statistically significant for p values<0.05.
The inventors then utilized microarray analysis to gain insights into gene expression changes in colorectal cancer cell lines post-GSK-3 inhibition with elraglusib. Several colorectal cancer cell lines (HCT-116, HT-29, KM12C) were treated with elraglusib at IC-50 concentrations or DMSO as vehicle control for twenty-four hours. Treated versus untreated samples were compared in triplicate using microarray analysis FIG. 10. Results were calculated using a fold change (FC) cutoff of >1.5, <−1.5, and a minimum p-value of<0.05. HCT-116 cells had 340 differentially expressed genes post-treatment. FIG. 2C.
TABLE 9 description. HT-29 CRC cell microarray analysis. HT-29 colorectal cancer cells were treated with 1 μM elraglusib for 24 hours and treated versus untreated control samples were compared in triplicate via microarray analysis (N=3). Table showing differentially expressed genes of interest with their corresponding fold changes, p values, descriptions, and functions. Genes highlighted in yellow are known p53 targets. Genes are ordered by fold change and were calculated using a fold change cutoff of >1.5, <−1.5, and a minimum p value of <0.05.

Saos-2 osteosarcoma = experiment: Western blot analysis; type: cell-based; conditions: IC50, 48 hours
Method: (§1) Western blot analysis. Cells were plated in a 6-well plate and incubated overnight before the spent media was replaced with drugged media. Drug treatment lasted for indicated durations. Protein was extracted using radioimmunoprecipitation (RIPA) assay buffer (Cat #R0278, Sigma-Aldrich, St. Louis, MO, USA) containing cOmplete™, Mini, EDTA-free Protease Inhibitor Cocktail (Cat #4693159001, Roche, Basel, Switzerland) from sub-confluent cells. Denaturing sample buffer was added, samples were boiled at 95° C. for ten minutes, and an equal amount of protein lysate was electrophoresed through NuPAGE™ 4 to 12%, bis-Tris, 1.5 mm, Mini Protein Gels (Invitrogen, Waltham, MA, USA) then transferred to PVDF membranes. The PVDF membrane was blocked with 5% non-fat milk (Sigma-Aldrich, St. Louis, MO, USA) in 1× TTBS. Primary antibodies were incubated with the transferred PVDF membrane in blocking buffer at 4° C. overnight. Secondary antibodies included Goat anti-Rabbit IgG (H+L) Secondary Antibody, HRP (Cat #31460, Invitrogen, Waltham, MA, USA), and Goat anti-Mouse IgG (H+L) Secondary Antibody, HRP (Cat #31430, Invitrogen, Waltham, MA, USA). The signal was detected using Pierce™ ECL Western Blotting Substrate (Cat #32106, Thermo Scientific, Waltham, MA, USA) and a Syngene Imaging System (RRID: SCR_015770).
(§2) Saos-2 osteosarcoma and 93T449 liposarcoma cell lines were pretreated at IC50 with elraglusib. The cells were harvested for Western blot analysis after 48 hours of treatment. Both cancer cell lines as well as TALL-104 T-cells and NK-92 NK cells were treated with 0.5 μM elraglusib for twenty-four hours and harvested for Luminex cytokine profiling.

93T449 liposarcoma = experiment: Western blot analysis; type: cell-based; conditions: IC50, 48 hours
Method: as §1, §2

For `Cn1cc(C2=C(c3coc4ccc(F)cc34)C(=O)NC2=O)c2cc3c(cc21)OCO3` [elraglusib], the “AEN Fold Change” value (HT-29) was 2.33, the “AGGF1 Fold Change” value (HT-29) was −2.21 and the “B2M Fold Change” value (HT-29) was 2.41. For the same compound, the “BARD1 Fold Change” value (HT-29) was −5.06, the “BCCIP Fold Change” value (HT-29) was 1.61 and the “BCL6 Fold Change” value (HT-29) was −3.43. The “BRAF Fold Change” value (HT-29) was −1.53, the “BTN3A2 Fold Change” value (HT-29) was −1.58 and the “CCAR1 Fold Change” value (HT-29) was 1.56. For the same compound, the “CCNE1 Fold Change” value (HT-29) was −2.6, the “CCNE2 Fold Change” value (HT-29) was −5.83 and the “CD14 Fold Change” value (HT-29) was −2.63. For the same compound, the “CD276 Fold Change” value (HT-29) was −1.56, the “CDC25C Fold Change” value (HT-29) was −2.45 and the “CDC45 Fold Change” value (HT-29) was −1.75. The “CDCA3 Fold Change” value (HT-29) was −1.7, the “CDK1 Fold Change” value (HT-29) was −3.05 and the “CDK2 Fold Change” value (HT-29) was −2.23. The “CDKN1A Fold Change” value (HT-29) was 1.72, the “CRLF3 Fold Change” value (HT-29) was 1.5 and the “DYNC1H1 Fold Change” value (HT-29) was −1.7. For the same compound, the “E2F7 Fold Change” value (HT-29) was −3.82, the “E2F8 Fold Change” value (HT-29) was −3.1 and the “EAPP Fold Change” value (HT-29) was −1.58. For the same compound, the “EGR1 Fold Change” value (HT-29) was 5.41, the “ERBB2IP Fold Change” value (HT-29) was −1.7 and the “FADD Fold Change” value (HT-29) was −1.66. For the same compound, the “FZD7 Fold Change” value (HT-29) was −1.71, the “HIP1 Fold Change” value (HT-29) was −1.67 and the “IL17RA Fold Change” value (HT-29) was −1.68. For the same compound, the “IL17RB Fold Change” value (HT-29) was −2.03, the “ITGB6 Fold Change” value (HT-29) was −1.91 and the “JAK1 Fold Change” value (HT-29) was −1.58. The “MAP3K1 Fold Change” value (HT-29) was −6.1, the “MCIDAS Fold Change” value (HT-29) was −1.61 and the “MDM4 Fold Change” value (HT-29) was 1.68. The “MTA3 Fold Change” value (HT-29) was −1.84, the “MYD88 Fold Change” value (HT-29) was −1.68 and the “NCR3LG1 Fold Change” value (HT-29) was 1.78. For the same compound, the “NFKBIA Fold Change” value (HT-29) was −5.25, the “NFKBIZ Fold Change” value (HT-29) was −2.68 and the “PDS5B Fold Change” value (HT-29) was −1.58. The “PIM1 Fold Change” value (HT-29) was −1.75, the “SFN Fold Change” value (HT-29) was 1.54 and the “SGK1 Fold Change” value (HT-29) was −1.75. The “SMAD3 Fold Change” value (HT-29) was 1.69, the “SOCS7 Fold Change” value (HT-29) was 1.74 and the “TGFBR3 Fold Change” value (HT-29) was −4.82. The “TNFRSF12A Fold Change” value (HT-29) was 1.9, the “TNFSF15 Fold Change” value (HT-29) was −2.32 and the “TNIK Fold Change” value (HT-29) was −1.51. The “TRAIP Fold Change” value (HT-29) was 1.83, the “TRIB1 Fold Change” value (HT-29) was −9.14 and the “UHRF1 Fold Change” value (HT-29) was −1.75. The cPARP (Saos-2 osteosarcoma) was “increase”, the PD-L1 expression (Saos-2 osteosarcoma; cell line not given) was “increase” and the cPARP (93T449 liposarcoma) was “increase”. The PD-L1 expression (93T449 liposarcoma; cell line not given) was “increase”.
